pEC50: −log10 of the molar value.
Experiments:
Format in all cases: cell-based
M4 mAChR = biological target: T1, M4 mAChR (Homo sapiens, UniProt P08173); assay: cAMP TR-FRET assay with forskolin, M4-overexpressing CHO-K1 cells; conditions: cAMP TR-FRET with forskolin
T1 construct: expressed in transfected cells; host or cells: CHO-K1
T1 sequence (P08173 1-479): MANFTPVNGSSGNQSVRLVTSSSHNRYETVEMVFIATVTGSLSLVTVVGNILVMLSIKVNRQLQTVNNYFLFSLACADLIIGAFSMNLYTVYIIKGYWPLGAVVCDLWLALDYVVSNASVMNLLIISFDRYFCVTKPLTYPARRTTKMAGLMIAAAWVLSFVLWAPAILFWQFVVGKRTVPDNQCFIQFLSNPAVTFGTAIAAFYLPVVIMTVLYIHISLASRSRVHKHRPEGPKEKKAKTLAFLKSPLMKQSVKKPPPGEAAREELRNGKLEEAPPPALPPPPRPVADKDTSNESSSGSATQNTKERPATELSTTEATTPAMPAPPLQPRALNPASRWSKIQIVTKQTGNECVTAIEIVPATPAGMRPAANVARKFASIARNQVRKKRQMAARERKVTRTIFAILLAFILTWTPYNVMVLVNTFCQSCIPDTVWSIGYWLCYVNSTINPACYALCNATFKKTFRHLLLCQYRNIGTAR
Procedure, shortened: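 CHO-K1 cells overexpressing the receptor were stimulated with forskolin to raise cAMP, so that Gi-mediated agonist decreases could be measured. cAMP was quantified by TR-FRET competition between cellular cAMP and labelled donor for anti-cAMP antibody, giving potency and efficacy.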

[1] = biological target: T2, M3 muscarinic acetylcholine receptor (mAChR) (Homo sapiens, UniProt P20309); assay: FLIPR calcium assay (Fluo 8), M3-overexpressing CHO-K1 cells; conditions: FLIPR calcium
T2 construct: expressed in transfected cells; host or cells: CHO-K1
Procedure, shortened: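 CHO-K1 cells overexpressing each human receptor seeded at 15,000 per well, grown overnight at 37° C., 5% CO2, then loaded with Fluo-8 for 30 min. Compounds in HBSS added and calcium response read on FLIPR; EC50 and Emax calculated per subtype.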

[2] = biological target: T3, M1 muscarinic acetylcholine receptor (mAChR) (Homo sapiens, UniProt P11229); assay: FLIPR calcium assay (Fluo 8), M1-overexpressing CHO-K1 cells; conditions: FLIPR calcium
T3 construct: expressed in transfected cells; host or cells: CHO-K1
T3 sequence (P11229 1-460): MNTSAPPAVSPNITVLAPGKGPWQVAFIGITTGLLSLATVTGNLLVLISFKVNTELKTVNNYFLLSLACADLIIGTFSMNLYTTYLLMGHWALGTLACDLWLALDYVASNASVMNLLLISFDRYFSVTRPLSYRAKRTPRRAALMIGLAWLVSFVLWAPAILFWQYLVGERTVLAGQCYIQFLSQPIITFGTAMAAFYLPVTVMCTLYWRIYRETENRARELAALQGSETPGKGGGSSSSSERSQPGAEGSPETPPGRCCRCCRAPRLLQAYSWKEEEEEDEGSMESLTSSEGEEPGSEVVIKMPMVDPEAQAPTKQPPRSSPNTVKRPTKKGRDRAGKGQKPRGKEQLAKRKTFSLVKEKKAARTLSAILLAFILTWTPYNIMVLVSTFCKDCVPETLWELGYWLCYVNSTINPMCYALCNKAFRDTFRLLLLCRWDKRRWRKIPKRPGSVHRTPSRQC
Procedure: Stimulation of a Gq-coupled G-protein coupled receptors (GPCRs), result in an efflux of calcium from the endoplasmic reticulum to the cytoplasm (Berridge, 1993), thus rendering this assay appropriate for the assessment of M1, M3 and M5 receptors. CHO-K1 cells overexpressing the M1, M3, or M5 muscarinic acetylcholine receptor (mAChR) were dispensed at 15,000 cells per well in 30 μl volume to 384-well plates and grown overnight at 37° C. in a 5% CO2 atmosphere. Fluo-8 Solution, 10 μl per well, was added to each well and incubated for 30 minutes at 37° C. in a 5% CO2 atmosphere. Compounds diluted in Hanks' balanced salt solution (HBSS) were transferred to the cell assay plate at 10 μl per well, and then read on a FLIPR instrument. EC50 and Emax figures were calculated from the resulting data for each receptor subtype.

T2 sequence (P20309 whole entry): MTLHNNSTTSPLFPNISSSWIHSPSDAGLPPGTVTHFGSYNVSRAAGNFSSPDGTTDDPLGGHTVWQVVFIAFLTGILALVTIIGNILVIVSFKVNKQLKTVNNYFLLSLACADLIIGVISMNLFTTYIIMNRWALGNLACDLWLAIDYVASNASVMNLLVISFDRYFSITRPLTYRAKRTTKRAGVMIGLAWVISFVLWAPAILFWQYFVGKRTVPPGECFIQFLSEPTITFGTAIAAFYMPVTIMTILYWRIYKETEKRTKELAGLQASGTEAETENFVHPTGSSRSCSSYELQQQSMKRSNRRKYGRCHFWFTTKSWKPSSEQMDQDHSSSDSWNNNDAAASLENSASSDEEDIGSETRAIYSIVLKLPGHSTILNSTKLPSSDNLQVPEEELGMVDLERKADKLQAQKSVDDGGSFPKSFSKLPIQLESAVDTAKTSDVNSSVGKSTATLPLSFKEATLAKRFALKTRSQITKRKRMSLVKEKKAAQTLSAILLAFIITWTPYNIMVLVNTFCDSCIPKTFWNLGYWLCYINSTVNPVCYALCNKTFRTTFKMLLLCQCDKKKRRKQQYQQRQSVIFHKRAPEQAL

Structure (SMILES)	Emax (M4 mAChR) [%]	pEC50 [1]	Emax [2] [%]
CCOC(=O)N1CC2(CC[C@@H](N3CCN(c4cc(F)cnc4-c4ccc(F)nc4)CC3)C2)C1 [Compound A2, ethyl (6R)-6-[4-[5-fluoro-2-(6-fluoro-3-pyridyl)-3-pyridyl]piperazin-1-yl]-2-azaspiro[3.4]octane-2-carboxylate]	80 to 100	< 5.00	19 to 49.9
CCOC(=O)N1CC2(CC[C@@H](N3CCN(c4cccnc4N4CCCC4)CC3)C2)C1 [Compound A3, ethyl (6R)-6-[4-(2-pyrrolidin-1-yl-3-pyridyl)piperazin-1-yl]-2-azaspiro[3.4]octane-2-carboxylate]		< 5.00	19 to 49.9
CCOC(=O)N1CC2(CC[C@@H](N3CCN(c4cc(F)cnc4-c4cccnc4OCC)CC3)C2)C1 [Compound A49]	80 to 100	< 5.00	50 to 79.9
CCOC(=O)N1CC2(CC[C@@H](N3CCN(c4cc(F)cnc4-c4cnc5c(c4)ncn5C)CC3)C2)C1 [Compound A51]	80 to 100	< 5.00	19 to 49.9
CCOC(=O)N1CC2(CC[C@@H](N3CCN(c4cc(F)cnc4-c4ccncc4)CC3)C2)C1 [Compound A53]	80 to 100	< 5.00	19 to 49.9
CCOC(=O)N1CC2(CC[C@@H](N3CCN(c4cc(F)cnc4-c4cncs4)CC3)C2)C1 [Compound A59]	80 to 100	< 5.00	19 to 49.9
CCOC(=O)N1CC2(CC[C@@H](N3CCN(c4cc(F)cnc4-c4ccnn4C)CC3)C2)C1 [Compound A67]	80 to 100	< 5.00	19 to 49.9
CCOC(=O)N1CC2(CC[C@@H](N3CCN(c4cc(F)cnc4-c4cn/c(=N\C)[nH]c4)CC3)C2)C1 [Compound A70]	80 to 100	< 5.00	19 to 49.9
CCOC(=O)N1CC2(CC[C@@H](N3CCN(c4cc(F)cnc4-c4ccc(NC(C)=O)nc4)CC3)C2)C1 [Compound A75]	80 to 100	< 5.00	19 to 49.9
CCOC(=O)N1CC2(CC[C@@H](N3CCN(c4cc(F)cnc4-c4cncc(O)c4)CC3)C2)C1 [Compound A82]	80 to 100	< 5.00	19 to 49.9
CCOC(=O)N1CC2(CC[C@@H](N3CCN(c4cc(F)cnc4-c4cnc(NC(C)C)nc4)CC3)C2)C1 [Compound A87]	80 to 100	< 5.00	19 to 49.9
CCOC(=O)N1CC2(CC[C@@H](N3CCN(c4cc(F)cnc4-c4ccnn4CC)CC3)C2)C1 [Compound A93]	80 to 100	< 5.00	19 to 49.9
CCOC(=O)N1CC2(CC[C@@H](N3CCN(c4cc(F)cnc4-c4cnc5ccnn5c4)CC3)C2)C1 [Compound A100]	80 to 100	< 5.00	19 to 49.9
CCOC(=O)N1CC2(CC[C@@H](N3CCN(c4cc(F)cnc4-c4ccc(C(=O)NC)cc4)CC3)C2)C1 [Compound A103]	80 to 100	< 5.00	19 to 49.9
CCOC(=O)N1CC2(CC[C@@H](N3CCN(c4cc(F)cnc4-c4ccccc4O)CC3)C2)C1 [Compound A104]	80 to 100	< 5.00	19 to 49.9
CCOC(=O)N1CC2(CC[C@@H](N3CCN(c4cc(F)cnc4-c4cnoc4C)CC3)C2)C1 [Compound A113]	80 to 100	< 5.00	19 to 49.9
CCOC(=O)N1CC2(CC[C@@H](N3CCN(c4cc(F)cnc4-c4cnc(OC)c(F)c4)CC3)C2)C1 [Compound A139]	80 to 100	< 5.00	< 19

From US20260098026A1, “M4 ACTIVATORS/MODULATORS AND USES THEREOF” (Cerevel Therapeutics, LLC, priority 2022, published 2026)
